In assay [1] the target is T1, H3 receptor (Homo sapiens, UniProt Q9Y5N1).
T1 construct: expressed in transfected cells; pcDNA3)
In words: Binding Assay III: [125I]-iodoproxifan binding to membranes of h-H3-HEK 293 clones. Conditions: 30 pM [125I]-iodoproxifan, h-H3-HEK 293 membranes. On the procedure: The H3 receptor was cloned by PCR and subcloned into the pcDNA3 expression vector. Cells stably expressing the H3 receptor were generated by transfecting the H3-expression vectors into HEK 293 cells and using G418 to select for H3 clones. The h-H3-HEK 293 clones were cultured in DMEM with glutamax, 10% FCS, 1% Pen/Strep and 1 mg/ml G 418 at 37° C. and 5% CO2. Before harvesting, the confluent cells were rinsed with PBS and incubated with Versene for approximately 5 minutes. The cells were flushed with PBS and DMEM and the cellsuspension collected in a tube and centrifuged for 5-10 min at 1500 rpm in a Heraeus Sepatech Megafuge 1.0. The pellet was resuspended in 10-20 vol. Hepes buffer (20 mM Hepes, 5 mM MgCl2, pH 7.1 (KOH)) and homogenized for 10-20 seconds using a Ultra-Turrax homogenizer. The homogenate was centrifuged for 30 min at 23 000 g. The pellet was resuspended in 5-10 ml Hepes buffer, homogenized 5-10 seconds with the Ultra-Turrax and centrifuged for 10 min at 23 000 g. Following this centrifugation step, the membrane pellet was resuspended in 2-4 ml Hepes buffer, homogenized with a syringe or teflonhomogenizer, and the protein concentration determined. The membranes were diluted to a protein concentration of 1-5 mg/ml in Hepes buffer, aliquoted and kept at −80° C. until use. […]

The target of assay [2] is T1, H3 receptor. Kind of assay: Functional Assay: cAMP accumulation (Flash Plate) in HEK293 cells expressing the human H3 receptors. It is filed as cell-based. The following applies: cAMP accumulation stimulated with isoprenaline, h-H3-HEK 293 cells. On the procedure: The ability of the compounds to interact with the histamine H3 receptor as agonists, inverse agonists and/or competitive antagonists, was determined by an in vitro functional assay utilizing membranes from HEK293 cell expressing the human H3 receptors.
The H3 receptor was cloned by PCR and subcloned into the pcDNA3 expression vector. Cells stably expressing the H3 receptor were generated by transfecting the H3-expression vectors into HEK 293 cells and using G418 to select for H3 clones. The h-H3-HEK 293 clones were cultured in DMEM with glutamax, 10% FCS, 1% Pen/Strep and 1 mg/ml G 418 at 37° C. and 5% CO2.
The H3 receptor expressing cells were washed once with phosphate buffered saline (PBS) and harvested using versene (GIBCO-BRL). PBS was added and the cells were centrifuged for 5 min at 188 g. The cell pellet was resuspended in stimulation buffer to a concentration of 1×10^6 cells/ml. cAMP accumulation was measured using the Flash Plate® cAMP assay (NEN™ Life Science Products). […] The plates were then sealed with plastic, shaken for 30 minutes, allowed to stand overnight, and finally the radioactivity was counted in the Cobra II auto gamma topcounter. EC50 values were calculated by non-linear regression analysis of dose response curves (6 points minimum) using GraphPad Prism. Kb values were calculated by Schild plot analysis.

Results on two molecules are retold here after patent publication US20040127718A1, “Substituted imidazoles” (Novo Nordisk A/S, priority 2001, published 2004).

A word on the pIC50: it is −log10 of the IC50, conventionally taken in molar units. Lower therefore signals a high IC50. As a reminder, the pEC50 is the EC50 on a negative log10 scale, so that one unit is a factor of ten.

pEC50, pIC50: −log10 of the molar value.

T1 sequence (Q9Y5N1 whole entry): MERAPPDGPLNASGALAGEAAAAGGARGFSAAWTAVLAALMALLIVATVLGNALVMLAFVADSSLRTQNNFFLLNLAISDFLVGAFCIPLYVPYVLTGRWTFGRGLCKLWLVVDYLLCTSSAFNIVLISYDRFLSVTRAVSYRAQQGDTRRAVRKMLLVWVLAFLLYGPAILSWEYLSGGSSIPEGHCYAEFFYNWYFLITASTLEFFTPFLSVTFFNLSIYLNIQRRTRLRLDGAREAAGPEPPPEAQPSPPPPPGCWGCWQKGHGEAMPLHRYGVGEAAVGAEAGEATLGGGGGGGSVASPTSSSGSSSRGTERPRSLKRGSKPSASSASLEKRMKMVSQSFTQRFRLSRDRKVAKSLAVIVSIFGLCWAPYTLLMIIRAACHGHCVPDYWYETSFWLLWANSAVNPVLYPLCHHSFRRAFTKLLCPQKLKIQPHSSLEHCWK

`Cc1[nH]cnc1CCCCOc1ccc2ccccc2c1` [Example 15/5, 5-Methyl-4-[4-(naphthalen-2-yloxy)-butyl]-1H-imidazole] had a negative-log IC50 (pIC50) at H3 receptor [1] of over 7.00. Further, the pEC50 at H3 receptor [2] is over 7.00.
`Cc1[nH]cnc1CCCOCc1cccc(I)c1` [Example 16/14, 4-[3-(3-Iodo-benzyloxy)-propyl]-5-methyl-1H-imidazole]: at H3 receptor [1], the pIC50 is over 7.30. In addition, on H3 receptor [2], the negative-log EC50 (pEC50) is over 7.30.
